Data as given in article PMC9848300, “Discovery of novel enasidenib analogues targeting inhibition of mutant isocitrate dehydrogenase 2 as antileukaemic agents” (Journal of Enzyme Inhibition and Medicinal Chemistry, 2023).
Like-named read-outs stand apart in the source and are kept apart here.

Experiments:
Type in all cases: cell-based
MOLT-4 = assay: NCI 60 antitumor screening (single dose / five doses); details: Homo sapiens
RPMI-8226 = assay: as above; details: Homo sapiens
A549/ATCC = assay: NCI 60 antitumor screening (single dose); details: Homo sapiens; A549/ATCC (non-small cell lung cancer), single dose 10 μM; read-out: Growth inhibition percentage (GI %)
How it was run: (§1)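 Values are GI% (100 − G%) from the NCI 60-line single-dose screen, compound at 10 μM.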

CAKI-1 = assay: NCI 60 antitumor screening (single dose); details: Homo sapiens; CAKI-1 (renal cancer), single dose 10 μM; read-out: Growth inhibition percentage (GI %)
How it was run: as §1

HCC-2998 = assay: NCI 60 antitumor screening (single dose); details: Homo sapiens; HCC-2998 (colon cancer), single dose 10 μM; read-out: Growth inhibition percentage (GI %)
How it was run: (§2)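 Compounds were tested at a single 10 μM dose against the NCI 60-cell-line panel (nine tumour types), in triplicate. Growth was recorded as percent growth (G%) of treated cells, and growth inhibition was taken as GI% = 100 − G%.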

HOP-62 = assay: NCI 60 antitumor screening (single dose); details: Homo sapiens; HOP-62 (non-small cell lung cancer), single dose 10 μM; read-out: Growth inhibition percentage (GI %)
How it was run: as §2

KM 12 = assay: NCI 60 antitumor screening (single dose); details: Homo sapiens, KM12; KM 12 (colon cancer), single dose 10 μM; read-out: Growth inhibition percentage (GI %)
How it was run: as §1

M14 = assay: NCI 60 antitumor screening (single dose); details: Homo sapiens; M14 (melanoma), single dose 10 μM; read-out: Growth inhibition percentage (GI %)
How it was run: as §1

MCF7 = assay: NCI 60 antitumor screening (single dose); details: Homo sapiens; MCF7 (breast cancer), single dose 10 μM; read-out: Growth inhibition percentage (GI %)
How it was run: as §1

NCI-H226 = assay: NCI 60 antitumor screening (single dose); details: Homo sapiens; NCI-H226 (non-small cell lung cancer), single dose 10 μM; read-out: Growth inhibition percentage (GI %)
How it was run: as §1

NCI-H23 = assay: NCI 60 antitumor screening (single dose); details: Homo sapiens; NCI-H23 (non-small cell lung cancer), single dose 10 μM; read-out: Growth inhibition percentage (GI %)
How it was run: as §2

NCI-H322M = assay: NCI 60 antitumor screening (single dose); details: Homo sapiens; NCI-H322M (non-small cell lung cancer), single dose 10 μM; read-out: Growth inhibition percentage (GI %)
How it was run: as §1

NCI-H522 = assay: NCI 60 antitumor screening (single dose); details: Homo sapiens; NCI-H522 (non-small cell lung cancer), single dose 10 μM; read-out: Growth inhibition percentage (GI %)
How it was run: as §2

OVCAR-3 = assay: NCI 60 antitumor screening (single dose); details: Homo sapiens; OVCAR-3 (ovarian cancer), single dose 10 μM; read-out: Growth inhibition percentage (GI %)
How it was run: as §1

OVCAR-4 = assay: NCI 60 antitumor screening (single dose); details: Homo sapiens; OVCAR-4 (ovarian cancer), single dose 10 μM; read-out: Growth inhibition percentage (GI %)
How it was run: as §1

OVCAR-5 = assay: NCI 60 antitumor screening (single dose); details: Homo sapiens; OVCAR-5 (ovarian cancer), single dose 10 μM; read-out: Growth inhibition percentage (GI %)
How it was run: as §2

OVCAR-8 = assay: NCI 60 antitumor screening (single dose); details: Homo sapiens; OVCAR-8 (ovarian cancer), single dose 10 μM; read-out: Growth inhibition percentage (GI %)
How it was run: as §1

SF-268 = assay: NCI 60 antitumor screening (single dose); details: Homo sapiens; SF-268 (CNS cancer), single dose 10 μM; read-out: Growth inhibition percentage (GI %)
How it was run: as §2

SNB-19 = assay: NCI 60 antitumor screening (single dose); details: Homo sapiens; SNB-19 (CNS cancer), single dose 10 μM; read-out: Growth inhibition percentage (GI %)
How it was run: as §1

TK-10 = assay: NCI 60 antitumor screening (single dose); details: Homo sapiens; TK-10 (renal cancer), single dose 10 μM; read-out: Growth inhibition percentage (GI %)
How it was run: as §1

U251 = assay: NCI 60 antitumor screening (single dose); details: Homo sapiens, U-251; U251 (CNS cancer), single dose 10 μM; read-out: Growth inhibition percentage (GI %)
How it was run: as §2

HCT-116 = assay: NCI 60 antitumor screening (single dose / five doses); details: Homo sapiens
HCT-15 = assay: as above; details: Homo sapiens
786-0 = assay: as above; details: Homo sapiens
UO-31 = assay: as above; details: Homo sapiens
BT-549 = assay: as above; details: Homo sapiens
T-47D = assay: as above; details: Homo sapiens, T47D; for inhibition at 10 µM: read-out: Growth inhibition percentage (GI %)
[1] = MOLT-4 (leukaemia), single dose 10 μM, read-out: Growth inhibition percentage (GI %)
[2] = RPMI-8226 (leukaemia), single dose 10 μM, read-out: Growth inhibition percentage (GI %)
[3] = HCT-116 (colon cancer), single dose 10 μM, read-out: Growth inhibition percentage (GI %)
[4] = HCT-15 (colon cancer), single dose 10 μM, read-out: Growth inhibition percentage (GI %)
[5] = 786-0, 786-0 (renal cancer), single dose 10 μM, read-out: Growth inhibition percentage (GI %)
[6] = UO-31 (renal cancer), single dose 10 μM, read-out: Growth inhibition percentage (GI %)
[7] = BT-549 (breast cancer), single dose 10 μM, read-out: Growth inhibition percentage (GI %)
[8] = T-47D (breast cancer), single dose 10 μM

| SMILES | inhibition at 10 µM (MOLT-4; [1]) [%] | inhibition at 10 µM (A549/ATCC) [%] | inhibition at 10 µM (CAKI-1) [%] | inhibition at 10 µM (HCC-2998) [%] | inhibition at 10 µM (HOP-62) [%] | inhibition at 10 µM (KM 12) [%] | inhibition at 10 µM (M14) [%] | inhibition at 10 µM (MCF7) [%] | inhibition at 10 µM (NCI-H226) [%] | inhibition at 10 µM (NCI-H23) [%] | inhibition at 10 µM (NCI-H322M) [%] | inhibition at 10 µM (NCI-H522) [%] | inhibition at 10 µM (OVCAR-3) [%] | inhibition at 10 µM (OVCAR-4) [%] | inhibition at 10 µM (OVCAR-5) [%] | inhibition at 10 µM (OVCAR-8) [%] | inhibition at 10 µM (SF-268) [%] | inhibition at 10 µM (SNB-19) [%] | inhibition at 10 µM (TK-10) [%] | inhibition at 10 µM (U251) [%] | other results |
| --- | --- | --- | --- | --- | --- | --- | --- | --- | --- | --- | --- | --- | --- | --- | --- | --- | --- | --- | --- | --- | --- |
| Clc1cccc(/C=N/Nc2nc(N/N=C/c3cccc(Cl)c3Cl)nc(N3CCCCC3)n2)c1Cl [compound 7h, 2,4-Bis[(E)-2-[(2,3-Dichlorophenyl)methylidene]hydrazin-1-yl]-6-(piperidin-1-yl)-1,3,5-triazine] | 15.7 | 44.4 | 15.9 | 2.64 | 1.81 | 32.8 | 31.2 | 28.8 | 2.51 | 0.28 | 10 | 23.4 | 91.8 | 28.6 | 6.05 | 27.1 | 13.6 | 4.59 | 8.78 | 47.1 | inhibition at 10 µM (RPMI-8226; [2]): 6.61%; inhibition at 10 µM (HCT-116; [3]): 51.2%; inhibition at 10 µM (HCT-15; [4]): 34.5%; inhibition at 10 µM (786-0; [5]): -1.71%; inhibition at 10 µM (UO-31; [6]): 6.76%; inhibition at 10 µM (BT-549; [7]): 2.7%; inhibition at 10 µM (T-47D; [8]): 51.7% |
| O=[N+]([O-])c1cc(/C=N/Nc2nc(N/N=C/c3ccc(Cl)c([N+](=O)[O-])c3)nc(N3CCCCC3)n2)ccc1Cl [compound 7i, 2,4-Bis[(E)-2-[(4-Chloro-3-nitrophenyl)methylidene]hydrazin-1-yl]-6-(piperidin-1-yl)-1,3,5-triazine] | – | -11.2 | 27.6 | 32.6 | 56.3 | 94.5 | 7.7 | 99.1 | 38.6 | 18.2 | 28.8 | 48.1 | 107 | 13.1 | -8.09 | 69 | 35.1 | 27.4 | 6.2 | 81.5 | inhibition at 10 µM (MOLT-4; MOLT-4, read-out: Growth inhibition percentage (GI %)): 57.7%; inhibition at 10 µM (RPMI-8226; RPMI-8226, read-out: Growth inhibition percentage (GI %)): 81.7%; inhibition at 10 µM (HCT-116; HCT-116, read-out: Growth inhibition percentage (GI %)): 78%; inhibition at 10 µM (HCT-15; HCT-15, read-out: Growth inhibition percentage (GI %)): 50.3%; inhibition at 10 µM (786-0; 786-0, read-out: Growth inhibition percentage (GI %)): -8.84%; inhibition at 10 µM (UO-31; UO-31, read-out: Growth inhibition percentage (GI %)): 52.5%; inhibition at 10 µM (BT-549; BT-549, read-out: Growth inhibition percentage (GI %)): 2.15%; inhibition at 10 µM (T-47D): 51.8% |
| Oc1ccc(/C=N/Nc2nc(N/N=C/c3ccc(O)c(O)c3)nc(N3CCCCC3)n2)cc1O [compound 7j, 4-[(1e)-(2-{4-[(E)-2-[(3,4-Dihydroxyphenyl)methylidene]hydrazin-1-yl]-6-(piperidin-1-yl)-1,3,5-triazin-2-yl}hydrazin-1-ylidene)methyl]benzene-1,2-diol] | 6.3 | -0.07 | 13.4 | -5 | -10.5 | -0.29 | -3.18 | 4.27 | 4.47 | 0.5 | -2.3 | 6.61 | 5.01 | -0.74 | -13.1 | 1.94 | -2.56 | 13.7 | -3.52 | 9.07 | inhibition at 10 µM (RPMI-8226; [2]): -7.6%; inhibition at 10 µM (HCT-116; [3]): 23.7%; inhibition at 10 µM (HCT-15; [4]): 16.1%; inhibition at 10 µM (786-0; [5]): -1.22%; inhibition at 10 µM (UO-31; [6]): 15.3%; inhibition at 10 µM (BT-549; [7]): 1.47%; inhibition at 10 µM (T-47D; [8]): 16.9% |
| C(=N\Nc1nc(N/N=C/c2ccc3c(c2)OCO3)nc(N2CCCCC2)n1)/c1ccc2c(c1)OCO2 [compound 7k, 2,4-Bis[(E)-2-(2H-1,3-Benzodioxol-5-ylmethylidene)hydrazin-1-yl]-6-(piperidin-1-yl)-1,3,5-triazine] | 43.7 | 8.56 | 1.07 | 16.2 | -22.5 | 13.8 | 2.72 | 45.2 | -0.61 | -1.44 | 1.53 | 8.07 | -5.21 | -9.55 | -18.2 | 9.89 | -0.46 | 19.7 | -21 | 18.6 | inhibition at 10 µM (RPMI-8226; [2]): 43.8%; inhibition at 10 µM (HCT-116; [3]): 52.1%; inhibition at 10 µM (HCT-15; [4]): 66.2%; inhibition at 10 µM (786-0; [5]): 13.4%; inhibition at 10 µM (UO-31; [6]): 25.6%; inhibition at 10 µM (BT-549; [7]): -21.9%; inhibition at 10 µM (T-47D; [8]): 12.8% |
| Fc1cccc(Cl)c1/C=N/Nc1nc(N/N=C/c2c(F)cccc2Cl)nc(N2CCCCC2)n1 [compound 7l, 2,4-Bis[(E)-2-[(2-Chloro-6-fluorophenyl)methylidene]hydrazin-1-yl]-6-(piperidin-1-yl)-1,3,5-triazine] | 86.3 | 78.4 | 85.9 | 75.7 | 74.1 | 89.2 | 88.1 | 96.9 | 46.1 | 55.2 | 64.2 | 89.6 | 77.3 | 79 | 72.2 | 74.2 | 63.3 | 74.2 | 72.8 | 73.2 | inhibition at 10 µM (RPMI-8226; [2]): 96.7%; GI50 (RPMI-8226; RPMI-8226, five doses (0.01–100 μM), read-out: GI50): 2.26 µM; inhibition at 10 µM (HCT-116; [3]): 80.5%; GI50 (HCT-116; HCT-116, five doses (0.01–100 μM), read-out: GI50): 2.83 µM; inhibition at 10 µM (HCT-15; [4]): 96.1%; GI50 (HCT-15; HCT-15, five doses (0.01–100 μM), read-out: GI50): 2.82 µM; inhibition at 10 µM (786-0; [5]): 71.7%; GI50 (786-0; 786-0, five doses (0.01–100 μM), read-out: GI50): 3.44 µM; inhibition at 10 µM (UO-31; [6]): 91%; GI50 (UO-31; UO-31, five doses (0.01–100 μM), read-out: GI50): 2.01 µM; inhibition at 10 µM (BT-549; [7]): 31.6%; GI50 (BT-549; BT-549, five doses (0.01–100 μM), read-out: GI50): 4.45 µM; inhibition at 10 µM (T-47D; [8]): 89%; GI50 (T-47D; T-47D, five doses (0.01–100 μM), read-out: GI50): 1.71 µM |
